≈ marks a conversion by molar mass, not a printed value. Values belong to the molecule of their own block, whether it stands above or below them. Calls of active or inactive are those of the source. The rule behind the calls is not given here.
What was measured:
[1] = Cytotoxicity against mouse J774.1 cells incubated for 24 hrs and measured 48 and 72 hrs post dye addition by Alamar blue dye based assay; type: cell-based
Enterococcus faecalis = experiment: Antibacterial activity against Enterococcus faecalis JH212 assessed as inhibition of bacterial growth incubated for 18 hrs by […]; type: functional; details: JH212, 18 h
Staphylococcus aureus = experiment: Antibacterial activity against Staphylococcus aureus NCTC 8325 assessed as inhibition of bacterial growth incubated for 18 hrs by […]; type: functional; details: NCTC 8325, 18 h
[2] = system: Staphylococcus epidermidis; experiment: Antibacterial activity against Staphylococcus epidermidis RP62A assessed as inhibition of bacterial growth incubated for 18 hrs by […]; type: functional, organism-based
Enterococcus faecium = experiment: Antibacterial activity against Enterococcus faecium 6413 assessed as inhibition of bacterial growth incubated for 18 hrs by […]; type: functional, organism-based
Pseudomonas aeruginosa = experiment: Antibacterial activity against Pseudomonas aeruginosa isolate number 3 assessed as inhibition of bacterial growth incubated for 18 hrs by […]; type: functional, organism-based
Escherichia coli = experiment: Antibacterial activity against Escherichia coli 536 assessed as inhibition of bacterial growth incubated for 18 hrs by […]; type: functional, organism-based

Structure (SMILES): CC[C@H](C)[C@@H]1NC(=O)[C@H](C(C)C)NC(=O)[C@H](CC(C)C)NC(=O)CNC(=O)[C@@H](Cc2ccccc2)NC(=O)[C@@H](C)NC1=O [listing 1 of 2 here]
CC50 at 24 h [1]: > 200 µM

MIC (Enterococcus faecalis): 5.24 µM (≈ 3.05 µg/mL)
MIC (Staphylococcus aureus): 2.09 µM (≈ 1.22 µg/mL)
Structure (SMILES): CN[C@@H]1[C@H](O[C@H]2[C@H](O[C@H]3[C@H](O)[C@@H](O)[C@H](N=C(N)N)[C@@H](O)[C@@H]3N=C(N)N)O[C@@H](C)[C@]2(O)C=O)O[C@@H](CO)[C@H](O)[C@H]1O [STREPTOMYCIN]

Structure (SMILES): CC[C@H](C)[C@@H]1NC(=O)[C@@H](C)NC(=O)[C@@H](Cc2ccccc2)NC(=O)CNC(=O)[C@H](CC(C)C)NC(=O)[C@H](C(C)C)NC1=O
growth inhibition (GI) [2]: inactive
growth inhibition (GI) (Enterococcus faecium): inactive
growth inhibition (GI) (Pseudomonas aeruginosa): inactive
growth inhibition (GI) (Escherichia coli): inactive

MIC (Enterococcus faecalis): 8 µM (≈ 4.81 µg/mL)
MIC (Staphylococcus aureus): 12 µM (≈ 7.21 µg/mL)
Structure (SMILES): CC[C@H](C)[C@@H]1NC(=O)[C@H](C(C)C)NC(=O)[C@H](CC(C)C)NC(=O)CNC(=O)[C@@H](Cc2ccccc2)NC(=O)[C@@H](C)NC1=O [listing 2 of 2 here]

Source: ChEMBL document CHEMBL4184266, “Bacicyclin, a new antibacterial cyclic hexapeptide from Bacillus sp. strain BC028 isolated from Mytilus edulis” (Bioorg Med Chem Lett, 2018)
